“Also recorded” adds a separate entry of the source.
Columns and labels:
[1] = system: RAW264.7 murine macrophage cells; assay: TNFα production with TLR agonists in RAW264.7 macrophages, POPG treatment; type: cell-based; conditions: TLR agonist stimulated RAW264.7 cells, after 24 h of POPG treatment, FIG. 1
Source text: (§1) The Journal of Biological Chemistry 294, 4282 […]; Numata, M. & Voelker, D. R. Anti-inflammatory and anti-viral actions of anionic pulmonary surfactant phospholipids. Biochimica et Biophysica Acta (BBA)—Molecular and CEll Biology of Lipids 1867, 159139 (2022) Mueller, M., Brandenburg, K., Dedrick, R., Schromm, A. B. & Seydel, U. Phospholipids Inhibit Lipopolysaccharide (LPS)-Induced Cell Activation: A Role for LPS-Binding Protein. The Journal of Immunology 174, 1091-1096 (2005); K, K. et al. Anionic pulmonary surfactact phospholipids inhibit inflammatory response from alveolar macrophages and U937 cells by binding the lipopolysaccharide-interacting proteins CD14 and MD-2. J Biol Chem 284, 25488-25500 (2009)]. MD-2 and CD14 are molecular components that are responsible for facilitating the downstream intracellular signaling of TLR4 mediated inflammation. POPG binding to MD-2 and CD-14 will disrupt the downstream TLR signaling and prevent the inflammatory response [Berger, M. de Boer, J. D, van der Poll, T., Sterk, P. J. & van der Zee, J. S. Local coagulation activation following bronchial instillation of house dust mite allergen (HDM) and HDM/Lipopolysaccharide (LPS) in mild asthmatics. European Respiratory Journal 40. (2012)].

IL8 = assay: Suppression of inflammation mediated by IL8 (data not shown)
Source text: as §1

MD-2 = target: T1, MD-2 (Homo sapiens, UniProt Q9Y6Y9); conditions: prevents association with TLR-4; cited from earlier work
T1 sequence (Q9Y6Y9 19-160): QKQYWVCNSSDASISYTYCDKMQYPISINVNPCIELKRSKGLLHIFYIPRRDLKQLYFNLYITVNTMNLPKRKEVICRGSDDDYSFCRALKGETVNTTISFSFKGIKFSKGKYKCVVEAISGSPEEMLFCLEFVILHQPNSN

CD14 = target: T2, CD14 (Homo sapiens, UniProt P08571); conditions: prevents association with TLR-4; cited from earlier work
T2 sequence (P08571 20-345): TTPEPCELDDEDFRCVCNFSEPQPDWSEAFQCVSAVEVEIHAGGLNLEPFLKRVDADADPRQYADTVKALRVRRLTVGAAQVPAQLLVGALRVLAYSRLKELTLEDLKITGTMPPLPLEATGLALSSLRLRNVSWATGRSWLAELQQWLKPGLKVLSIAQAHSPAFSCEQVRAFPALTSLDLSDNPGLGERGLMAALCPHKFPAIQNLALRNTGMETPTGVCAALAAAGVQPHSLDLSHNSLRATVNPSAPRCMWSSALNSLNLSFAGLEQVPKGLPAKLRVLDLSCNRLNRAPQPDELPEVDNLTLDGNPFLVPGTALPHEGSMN

## CCCCCCCC/C=C\CCCCCCCC(=O)O[C@H](COC(=O)CCCCCCCCCCCCCCC)COP(=O)(O)OCC(O)CO (stereo partly shown) [POPG, palmitoyloleoylphosphatidylglycerol]
[1]
  TNFα production: reduces TNFα production; also recorded: suppression of inflammation mediated by TNFα
IL8
  suppression of inflammation mediated by IL8: suppression of inflammation
MD-2
  binding to MD-2: preferentially bind
CD14
  binding to CD14: preferentially bind

— patent US20240156733A1, “METHODS OF PREPARATION OF NOVEL PAN TLR ANTAGONISTIC LIPOSOMAL-LNP FORMULATIONS AND USES THEREOF” (Celestial Therapeutics Inc., priority 2022, published 2024)
